Data reported in patent US6624182B1, “Hydroxyphenylvinylthiazoles” (Ciba Specialty Chemicals Corporation, priority 1999, dated 2003).

Columns and labels:
Assay in all cases: Determination of the minimum inhibitory concentration (MIC value) in microtitre plates
[1] = tested on: S. aureus; assay type: cell-based; details: optical density at 620 nm, 48 hours at 37° C., MIC = ≦20% growth; tested at 100; 10 and 1 ppm (approximate values); (2), (3), (4) at 120; 60; 30; 15; 7.5; 3.75 ppm
Outline: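 DMSO-dissolved compounds were tested in 1:2 serial dilutions against bacteria in CASO bouillon, from inocula of 1−5×10^6 KBE/ml diluted 1:100. Growth was read by OD 620 nm after 48 h at 37 °C. MIC was the lowest concentration giving ≦20% growth versus the growth control, tested in duplicate.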

[2] = tested on: C. albicans; assay type: cell-based, Candida albicans ATCC 10231; details: optical density at 620 nm, 48 hours at 37° C., MIC = ≦20% growth; tested at 100; 10 and 1 ppm (approximate values); (2), (3), (4) at 120; 60; 30; 15; 7.5; 3.75 ppm
Outline: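 Candida albicans ATCC 10231 grown overnight in CASO broth, adjusted to 1–5×10^6 CFU/ml then diluted 1:100, was exposed to 1:2 serial dilutions of compound (DMSO) for 48 h at 37 °C. Growth was read as OD620; MIC was the concentration giving ≤20% growth versus control, tested in duplicate.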

[3] = tested on: E. coli; assay type: cell-based, Escherichia coli NCTC 8196; details: optical density at 620 nm, 48 hours at 37° C., MIC = ≦20% growth; tested at 100; 10 and 1 ppm (approximate values); (2), (3), (4) at 120; 60; 30; 15; 7.5; 3.75 ppm
Outline: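 E. coli NCTC 8196 grown overnight in CASO bouillon, adjusted to 1−5×10^6 KBE/ml, diluted 1:100 and added to DMSO-dissolved compounds in 1:2 dilution series. Incubated 48 h at 37° C; growth read as OD 620 nm. MIC is the lowest concentration giving ≤20% growth versus growth control; duplicates.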

[4] = tested on: A. niger; assay type: cell-based, Aspergillus niger ATCC 6275; details: optical density at 620 nm, 5 days at 28° C., MIC = ≦20% growth; tested at 100; 10 and 1 ppm (approximate values); (2), (3), (4) at 120; 60; 30; 15; 7.5; 3.75 ppm
Outline: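 A. niger ATCC 6275 spores, adjusted to 1−5×10^6 KBE/ml and diluted 1:100 in Sabouraud 2% glucose bouillon, were exposed to 2-fold dilutions of DMSO-dissolved compounds for 5 days at 28°C. Growth read as OD at 620 nm. MIC is the lowest concentration giving ≤20% growth versus growth control, tested in duplicate.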

[5] = tested on: P. aeruginosa; assay type: cell-based, Pseudomonas aeruginosa CIP A-22; details: optical density at 620 nm, 48 hours at 37° C., MIC = ≦20% growth; tested at 100; 10 and 1 ppm (approximate values); (2), (3), (4) at 120; 60; 30; 15; 7.5; 3.75 ppm
Outline: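 P. aeruginosa CIP A-22 at 1−5×10^6 KBE/ml, diluted 1:100 in CASO bouillon, exposed to 1:2 serial dilutions of DMSO-dissolved compound for 48 h at 37 °C, in duplicate. Growth read by OD 620 nm; MIC is the lowest concentration giving ≤20% growth relative to growth control.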

CCOc1cc(/C=C/c2nc(CC)cs2)ccc1O [Compound of formula (42)]
>100 ppm: MIC values in ppm S. aureus [1] | MIC values in ppm C. albicans [2] | MIC values in ppm E. coli [3] | MIC values in ppm A. niger [4] | MIC values in ppm P. aeruginosa [5]

CCc1csc(/C=C/c2ccc(O)c(OC)c2)n1 [Compound of formula (43)]
>100 ppm: MIC values in ppm S. aureus [1] | MIC values in ppm C. albicans [2] | MIC values in ppm E. coli [3] | MIC values in ppm A. niger [4] | MIC values in ppm P. aeruginosa [5]

CCc1csc(/C=C/c2ccc(OC)cc2O)n1 [Compound of formula (44)]
>100 ppm: MIC values in ppm S. aureus [1] | MIC values in ppm C. albicans [2] | MIC values in ppm E. coli [3] | MIC values in ppm A. niger [4] | MIC values in ppm P. aeruginosa [5]

CCc1csc(/C=C/c2ccccc2O)n1 [Compound of formula (45)]
>100 ppm: MIC values in ppm S. aureus [1] | MIC values in ppm C. albicans [2] | MIC values in ppm E. coli [3] | MIC values in ppm A. niger [4] | MIC values in ppm P. aeruginosa [5]

CCc1csc(/C=C/c2cc(O)c(OC)c(OC)c2)n1 [Compound of formula (46)]
>100 ppm: MIC values in ppm S. aureus [1] | MIC values in ppm C. albicans [2] | MIC values in ppm E. coli [3] | MIC values in ppm A. niger [4] | MIC values in ppm P. aeruginosa [5]

CCc1csc(/C=C/c2cc(C)c(O)c(C)c2)n1 [Compound of formula (47)]
>100 ppm: MIC values in ppm S. aureus [1] | MIC values in ppm C. albicans [2] | MIC values in ppm E. coli [3] | MIC values in ppm A. niger [4] | MIC values in ppm P. aeruginosa [5]

CCc1csc(/C=C/c2cccc(C)c2O)n1 [Compound of formula (48)]
>100 ppm: MIC values in ppm S. aureus [1] | MIC values in ppm C. albicans [2] | MIC values in ppm E. coli [3] | MIC values in ppm A. niger [4] | MIC values in ppm P. aeruginosa [5]

CCc1csc(/C=C/c2ccc(OCc3ccccc3)cc2O)n1 [Compound of formula (49)]
>100 ppm: MIC values in ppm S. aureus [1] | MIC values in ppm C. albicans [2] | MIC values in ppm E. coli [3] | MIC values in ppm A. niger [4] | MIC values in ppm P. aeruginosa [5]

CCc1csc(/C=C/c2ccc(O)cc2OC)n1 [Compound of formula (50)]
>100 ppm: MIC values in ppm S. aureus [1] | MIC values in ppm C. albicans [2] | MIC values in ppm E. coli [3] | MIC values in ppm A. niger [4] | MIC values in ppm P. aeruginosa [5]

Oc1cccc(/C=C/c2nc(-c3ccccc3)cs2)c1 [Compound of formula (51)]
>100 ppm: MIC values in ppm S. aureus [1] | MIC values in ppm C. albicans [2] | MIC values in ppm E. coli [3] | MIC values in ppm A. niger [4] | MIC values in ppm P. aeruginosa [5]

COc1ccc(/C=C/c2nc(-c3ccccc3)cs2)cc1O [Compound of formula (52)]
>100 ppm: MIC values in ppm S. aureus [1] | MIC values in ppm C. albicans [2] | MIC values in ppm E. coli [3] | MIC values in ppm A. niger [4] | MIC values in ppm P. aeruginosa [5]

CCOc1cc(/C=C/c2nc(-c3ccccc3)cs2)ccc1O [Compound of formula (53)]
>100 ppm: MIC values in ppm S. aureus [1] | MIC values in ppm C. albicans [2] | MIC values in ppm E. coli [3] | MIC values in ppm A. niger [4] | MIC values in ppm P. aeruginosa [5]

COc1cc(/C=C/c2nc(-c3ccccc3)cs2)ccc1O [Compound of formula (54)]
>100 ppm: MIC values in ppm S. aureus [1] | MIC values in ppm C. albicans [2] | MIC values in ppm E. coli [3] | MIC values in ppm A. niger [4] | MIC values in ppm P. aeruginosa [5]

COc1ccc(/C=C/c2nc(-c3ccccc3)cs2)c(O)c1 [Compound of formula (55)]
>100 ppm: MIC values in ppm S. aureus [1] | MIC values in ppm C. albicans [2] | MIC values in ppm E. coli [3] | MIC values in ppm A. niger [4] | MIC values in ppm P. aeruginosa [5]

Oc1ccccc1/C=C/c1nc(-c2ccccc2)cs1 [Compound of formula (56)]
>100 ppm: MIC values in ppm S. aureus [1] | MIC values in ppm C. albicans [2] | MIC values in ppm E. coli [3] | MIC values in ppm A. niger [4] | MIC values in ppm P. aeruginosa [5]

COc1cc(/C=C/c2nc(-c3ccccc3)cs2)cc(O)c1OC [Compound of formula (57)]
>100 ppm: MIC values in ppm S. aureus [1] | MIC values in ppm C. albicans [2] | MIC values in ppm E. coli [3] | MIC values in ppm A. niger [4] | MIC values in ppm P. aeruginosa [5]

Cc1cc(/C=C/c2nc(-c3ccccc3)cs2)cc(C)c1O [Compound of formula (58)]
>100 ppm: MIC values in ppm S. aureus [1] | MIC values in ppm C. albicans [2] | MIC values in ppm E. coli [3] | MIC values in ppm A. niger [4] | MIC values in ppm P. aeruginosa [5]

Cc1cccc(/C=C/c2nc(-c3ccccc3)cs2)c1O [Compound of formula (59)]
>100 ppm: MIC values in ppm S. aureus [1] | MIC values in ppm C. albicans [2] | MIC values in ppm E. coli [3] | MIC values in ppm A. niger [4] | MIC values in ppm P. aeruginosa [5]

Oc1cc(OCc2ccccc2)ccc1/C=C/c1nc(-c2ccccc2)cs1 [Compound of formula (60)]
>100 ppm: MIC values in ppm S. aureus [1] | MIC values in ppm C. albicans [2] | MIC values in ppm E. coli [3] | MIC values in ppm A. niger [4] | MIC values in ppm P. aeruginosa [5]

COc1cc(O)ccc1/C=C/c1nc(-c2ccccc2)cs1 [Compound of formula (61)]
>100 ppm: MIC values in ppm S. aureus [1] | MIC values in ppm C. albicans [2] | MIC values in ppm E. coli [3] | MIC values in ppm A. niger [4] | MIC values in ppm P. aeruginosa [5]
